Assay [1] deals with MOLT-3. Nature of the assay: Antitumor activity against human MOLT3 cells in presence of Penicillin-G-amidase after 72 hrs by XTT assay. Conditions: MOLT-3, 72 h. It is filed as functional, cell-based. For orientation: Tetrazolium assays rely on reduction of a dye to a coloured formazan, in cell work by metabolically active cells.
Assay [2] deals with MOLT-3. Nature of the assay: Antitumor activity against human MOLT3 cells in absence of Penicillin-G-amidase after 72 hrs by XTT assay. Format: functional, cell-based. As to conditions: MOLT-3, 72 h.

Structures are written as SMILES.

One may read the IC50 as the concentration that gives 50% inhibition.

`N[C@@H](Cc1ccc(N(CCCl)CCCl)cc1)C(=O)O` [MELPHALAN]: in the assay on MOLT-3 [1], the IC50 worked out at 0.3 µM. For the molecule `O=C(Cc1ccccc1)Nc1ccc(COC(=O)Nc2c(COC(=O)NC(Cc3ccc(N(CCCl)CCCl)cc3)C(=O)O)cc(COC(=O)NC(C(=O)O)c3ccc(N(CCCl)CCCl)cc3)cc2COC(=O)NC(Cc2ccc(N(CCCl)CCCl)cc2)C(=O)O)cc1` (stereo not given), the IC50 with MOLT-3 [1] is 0.5 µM; in the assay on MOLT-3 [2] it was 100 µM.

On to `CN(CCN(C)C(=O)Oc1c(COC(=O)NC(Cc2ccc(N(CCCl)CCCl)cc2)C(=O)O)cc(COC(=O)NC(C(=O)O)c2ccc(N(CCCl)CCCl)cc2)cc1COC(=O)NC(Cc1ccc(N(CCCl)CCCl)cc1)C(=O)O)C(=O)OCc1ccc(NC(=O)Cc2ccccc2)cc1` (stereo not given), for which the results for the IC50 in the assay with MOLT-3 [1] and with MOLT-3 [2] were 6 µM and 100 µM, respectively.
